According to patent US7473682B2, “Angiogenic peptides and uses thereof” (Ramot at Tel Aviv University Ltd., priority 2003, dated 2009):
“Also recorded” adds a separate entry of the source.

Columns and labels:
[1] = system: dermal microvascular endothelial cells (MVECs); assay: Proliferation of dermal microvascular endothelial cells (MVECs) in the presence of synthetic peptides; assay type: cell-based; conditions: for Increase of MVECs proliferation response / [^3H]-Thymidine uptake in MVECs: normoxia; for [^3H]-Thymidine uptake in MVECs: 0.1-100 ng/ml, 24 hours
Method: Proliferation of dermal microvascular endothelial cells (MVECs) in the presence of synthetic peptides—MVECs were incubated with synthetic peptides (LT, SP, and YR) as described above for HUVECs (ECs), except that the MVECs were seeded in EBM-MV medium containing supplements (Cambrex BioWhittaker Cell Biology Products) and MVECs from passage 4 (rather than 3) were used for proliferation experiments.
(§1) Synthetic peptides induced proliferation or migration after and under hypoxia treatment—Cell proliferation or migration assays were performed as described in Example 3, hereinabove, except that cells were divided to 3 groups: control cells, cells after exposure to hypoxia conditions or cells proliferating under hypoxia conditions. For cell proliferation assays, ECs were incubated with QF, LT and SP and MVECs were incubated with LT, SP, and YR. For cell migration assays, ECs were incubated with EBM-2 and MVECs were incubated with EBM-MV media.

MVECs = assay: Tube formation assay, MVECs; assay type: cell-based; conditions: for MVEC tube formation compared to untreated cells: normoxic conditions, 10 ng/ml, matrigel
Method: (§2) Tube formation assay—ECs from passage 3 or MVECs from passage 4 were harvested with trypsin and incubated for 24 hours in SFM. Twenty-four—well plates were pre-coated with 250 μl of Cultrex Basement Membrane Extract with reduced growth factors (R&D Systems, Minneapolis, Minn., USA). Five hundred microliters of medium containing 10^6 cells were transferred to the coated wells. Synthetic peptides, FGF, YR, QF, or VL were added to ECs, and VEGF, YR, QF, or VL were added to MVECs at 10 ng/ml. Plates were incubated for 24 hours at 37° C. in the presence of 5% CO2. HUVECs and MVECs were photographed under a light microscope at 20 hours and 8 hours, respectively.
(§3) Tube formation assay after and under hypoxia treatment—Tube formation assay was performed as described in Example 3, hereinabove, except that the cells were divided to 3 groups: control cells, cells after exposure to hypoxia conditions, and cells on matrigel basement that form tubes under hypoxia treatment.

HUVECs (ECs) [2] = assay: Proliferation of ECs (HUVECs) in the presence of synthetic peptides ([^3H]-Thymidine uptake); assay type: cell-based, human; conditions: for Highest proliferative response of ECs, fold increase / [^3H]-Thymidine uptake in ECs: normoxia; for [^3H]-Thymidine uptake in ECs: 0.05-100 ng/ml; for [^3H]-Thymidine uptake in ECs / [^3H]-Thymidine uptake / proliferation of ECs under and following hypoxia: 24 hours
Method: Proliferation of ECs in the presence of synthetic peptides—ECs were incubated in the presence of EBM-2 medium containing supplements (Cambrex BioWhittaker Cell Biology Products, Walkersville, USA). Cells were passaged every 3 days by harvesting cells with 0.25% […] (Biological Industries) and re-plating the cells at a concentration of 10^4 cells per a 25 cm^2 flask. ECs from passage 3 were used for proliferation experiments.
ECs (12×10^3 cells/well) were seeded on 24-well plates in EBM-2 medium containing supplements. Following a 24-hours incubation, cells were subjected to 24 hours of starvation in supplements-free medium (SFM). Synthetic peptides (SP, LT, TR, and VL) were each added at concentrations of 0.05, 0.1, 1, 10, or 100 ng/ml for 24 hours. For a proliferation assay, 2 μCi/well of [^3H]-Thymidine (SIGMA, Rehovot, Israel) were added for a 6-hour incubation, following which the plates were washed 3 times with PBS. For cell lysis, the plates were incubated for 15 minutes at 37° C. with 300 μl/well of 0.5 M NaOH. Subsequently, cell lysates were transferred to scintillation vials containing 2 ml of scintillation liquid (Ultima Gold, Packard Bioscience, Meriden, Conn., USA) and counted (cpm/min) in a β counter (Scintillation β Counter 1600 TR, Packard A Camberra Company, Meriden, Conn., USA).
as §1

HUVECs (ECs) [3] = assay: Tube formation assay, ECs (HUVECs); assay type: cell-based, human; conditions: for EC tube formation compared to untreated cells: normoxic conditions, 10 ng/ml, matrigel
Method: as §2, §3

HUVECs (ECs) [4] = assay: EC (HUVEC) migration assay with synthetic peptides; assay type: cell-based, human; conditions: 5, 10, 20 and 50 ng/ml, 5 hours
Method: Migration assays in the presence of synthetic peptides—EC migration was evaluated as described in Example 2, hereinabove. Following typsinization, ECs (25×10^3) were incubated in migration chambers. For the chemoattactant migration assay, synthetic peptides were added to the feeder tray at 5, 10, 20, and 50 ng/ml and incubated with the cells for 5 or 15 hours. For migration activation assays, synthetic peptides at 0.1, 1, and 10 ng/ml were incubated with the cells in the migration chamber for 5 or 15 hours.
as §1

VEGF-C = assay: Real time PCR gene expression in MVECs, VEGF-C; assay type: cell-based; set-up: key: increased (+); non-increased (−); conditions: 1 ng/ml peptide
Method: Real Time PCR—MVECs from passage 3 were incubated for 24 hours in EBM-MV supplement-free medium (starving media). Following starvation, 1 ng/ml of synthetic peptides LT, QF, SP, TR, YR, and VL and 10 ng/ml of VEGF were added to the plates. Following 1.5 or 6 hours of incubation, total RNA was extracted using TRIsol reagent (Invitrogen Life Technologies, Carlsbad Calif., USA) and 0.8 μg of the extracted RNA was used as a template for reverse transcription (Invitrogen) using random primers (SuperScript III First-Strand Synthesis System for RT-PCR (hvitrogen, Carlsbad Calif., USA) according to the manufacturer's instructions. Resulting cDNAs were subjected to real time PCR amplification using the ABI prism 7000 Sequence Detection System (Applied Biosystems, Foster City, Calif., USA). Oligonucleotide primers were designed using Primer Express Software (Applied Biosystems, Foster City, Calif., USA) according the translated region of VEGF-A (Accession No:NM_003376), VEGF-C (Accession No:NM_005429), KDR (Accession No:NM_002253), FLT-1 (Accession No:NM_002019), HIF-α (Accession No:HSU22431), and GAPDH (Accession No:NM_002046) and are listed in Table 6, hereinbelow. Briefly, a reaction mixture of 20 μl consisting of DDW, oligonucleotide primers (500 nM), cDNA (3 μl), and SYBR Green PCR master kit (Applied Biosystems, Foster City, Calif., USA) was subjected to an amplification program of 15 seconds at 95° C., and 60 seconds at 60° C. for 40 cycles. Results were analyzed using the Sequence Detector Software Version 1 (Applied Biosystenis).
Peptides effect on gene expression in MVECs—The effect of the synthetic peptides on the expression in MVECs of selected genes (VEGF-A, VEGF-C, KDR, FLT-1 and HIF-1α) related to the VEGF pathway (a major pathway that participated in angiogenic process) was tested. Synthetic peptides were added at 1 ng/ml for 1.5 and 6 hours. After incubation with peptide, RNA was extracted from MVECs and Real Time PCR was performed. Gene expression was calculated as peptide/control (cells without peptide treatment) ratio.

[5] = under hypoxia conditions, 18 hours

Sequence | [^3H]-Thymidine uptake / proliferation of MVECs after and under hypoxia [1] | Increase of MVECs proliferation after hypoxia ([1]; 1 ng/ml) [fold] | Increase of MVECs proliferation response ([1]; 1 ng/ml) [fold] | [^3H]-Thymidine uptake in MVECs [1] | Increase of MVECs proliferation under hypoxia ([1]; 10 ng/ml) [fold] | MVEC tube formation compared to untreated cells (MVECs) | Increase of EC proliferation after hypoxia (HUVECs (ECs) [2]; 10 ng/ml) [fold] | Highest proliferative response of ECs, fold increase (HUVECs (ECs) [2]; 10 ng/ml) [fold] | [^3H]-Thymidine uptake in ECs (HUVECs (ECs) [2]) | [^3H]-Thymidine uptake / proliferation of ECs under and following hypoxia (HUVECs (ECs) [2]) | Increase of EC proliferation under hypoxia (HUVECs (ECs) [2]; under hypoxia, 1 ng/ml) [fold] | EC tube formation compared to untreated cells (HUVECs (ECs) [3]) | EC migration, peptides as chemoattractants in feeder tray (HUVECs (ECs) [4]) | VEGF-C Expression after 1.5 hours (VEGF-C) | VEGF-C Expression after 6 hours (VEGF-C) | Increase of MVECs proliferation after hypoxia ([1]; 10 ng/ml) [fold] | Increase of MVECs proliferation under hypoxia ([1]; 1 ng/ml) [fold] | MVEC tube formation under hypoxia (MVECs; [5]) | EC tube formation under hypoxia (HUVECs (ECs) [3]; [5]) | Highest proliferative response of ECs, fold increase (HUVECs (ECs) [2]; 1 ng/ml) [fold]
LLADTTHHRPWT (Phage displayed peptide) [LT] | significant dose-dependent increase | 1.7 | 1.8 | significant increase | 1.7 | did not induce tube formation | 3.5 | 1.7 | significant dose-dependent increase | significant dose-dependent increase | 1.7 | did not induce tube formation | dose-dependent induced migration | + | + | – | – | – | – | –
QPWLEQAYYSTF (Phage displayed peptide) [QF] | did not show increase proliferation | – | – | – | – | significant increase in tube formation | – | – | – | did not show increase in proliferation | – | increased tube formation; also recorded: significant increase in tube formation | – | + | + | – | – | – | – | –
SAHGTSTGVPWP (Phage displayed peptide) | significant dose-dependent increase | – | 1.4 | significant increase | – | did not induce tube formation | 2 | 1.6 | significant dose-dependent increase | significant dose-dependent increase | – | did not induce tube formation | dose-dependent induced migration | + | + | 1.5 | 1.9 | effective only in tube formation under hypoxia conditions | effective only in tube formation under hypoxia conditions | –
TLPWLEESYWRP (Phage displayed peptide) [TR] | – | – | – | – | – | – | – | 1.8 | significant dose-dependent increase | – | – | – | smaller effect of induced migration | + | + | – | – | – | – | –
VPWMEPAYQRFL (Phage displayed peptide) [VL] | – | – | – | – | – | significant increase in tube formation | – | – | significant dose-dependent increase | – | – | increased tube formation | smaller effect of induced migration | + | + | – | – | – | – | 1.8
YPHIDSLGHWRR (Phage displayed peptide) [YR] | – | – | 1.7 | significant increase | – | significant increase in tube formation | – | – | – | – | – | increased tube formation | – | – | – | – | – | – | – | –
